Source: patent publication US20230263822A1, “MODULATION OF FACTOR 11 EXPRESSION” (Ionis Pharmaceuticals, Inc., priority 2008, published 2023)
Strand notation (5' to 3'): a small letter for the sugar, then the base; units joined by * are phosphorothioate-linked, units joined directly phosphodiester-linked; [ ] holds rarer units or linkages, { } end groups; capitals alone tell only the bases. e = 2'-O-(2-methoxyethyl) (MOE); [5mC] = 5-methylcytosine; d = 2'-deoxy (DNA)

Assays:
Format in all cases: cell-based
[1] = test system: human Factor 11 mRNA; assay: Dose-dependent antisense inhibition of human Factor 11 in HepG2 cells, lipofectin 9.375-150 nM (Example 2); settings: ~16 h
Procedure: Cells were plated at a density of 10,000 cells per well and transfected using lipofectin reagent with 9.375 nM, 18.75 nM, 37.5 nM, 75 nM, and 150 nM concentrations of antisense oligonucleotide, as specified in Table 3. After a treatment period of approximately 16 hours, RNA was isolated from the cells and Factor 11 mRNA levels were measured by quantitative real-time PCR. Human Factor 11 primer probe set RTS 2966 (forward sequence: […], incorporated herein as SEQ ID NO: 3; reverse sequence: […], incorporated herein as SEQ ID NO: 4; probe sequence: TTGTCTACTGAAGCACACCCAAACAGGGAX, incorporated herein as SEQ ID NO: 5) was used to measure mRNA levels. Factor 11 mRNA levels were adjusted according to total RNA content, as measured by RIBOGREEN. Results are presented as percent inhibition of Factor 11, relative to untreated control cells.

[2] = test system: human Factor 11 mRNA; assay: Antisense inhibition of human Factor 11 in HepG2 cells by microwalk gapmers, lipofectin, 75 nM (Example 3)
How it was run: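 HepG2 cells (10,000/well) were transfected via lipofectin with 75 nM 20-mer MOE gapmers (phosphorothioate, 5-methyl-C) for about 24 h. Factor 11 mRNA was measured by qRT-PCR, normalized to RIBOGREEN total RNA, and given as percent inhibition versus untreated cells.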

[3] = test system: human Factor 11 mRNA; assay: Dose-dependent inhibition of human Factor 11 in HepG2 cells, electroporation 0.7-20 uM (Example 4); settings: for percent inhibition of Factor 11 at 0.7 μM / percent inhibition of Factor 11 at 2.2 μM / percent inhibition of Factor 11 at 6.7 μM / percent inhibition of Factor 11 at 20 μM: relative to untreated control cells
How it was run: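 HepG2 cells electroporated with antisense gapmers at 0.7, 2.2, 6.7 and 20 μM, treated ~16 h. Factor 11 mRNA quantified by qRT-PCR (primer probe set RTS 2966), normalised to RIBOGREEN total RNA; expressed as percent inhibition versus untreated control cells.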

[4] = test system: human Factor 11 mRNA; assay: Antisense inhibition of human Factor 11 in HepG2 cells, lipofectin, 75 nM (Example 1); settings: 75 nM antisense oligonucleotide, ~24 h, relative to untreated control cells, gapmers targeted to SEQ ID NO: 1
How it was run: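 HepG2 cells transfected via lipofectin with 75 nM antisense oligonucleotide (5-10-5 MOE gapmers, 20-mers, phosphorothioate, 5-methylcytidines), treated ~24 h. Factor 11 mRNA quantified by real-time PCR, normalised to RIBOGREEN total RNA; percent inhibition versus untreated cells.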

[5] = test system: human Factor 11 mRNA; assay: Dose-dependent inhibition of human Factor 11 in HepG2 cells, lipofectin 9.375-75 nM (Example 4); settings: for percent inhibition of Factor 11 at 9.375 nM / percent inhibition of Factor 11 at 18.75 nM / percent inhibition of Factor 11 at 37.5 nM / percent inhibition of Factor 11 at 75 nM: relative to untreated control cells
How it was run: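 HepG2 cells transfected via lipofectin with antisense oligonucleotide at 9.375, 18.75, 37.5 or 75 nM for about 16 h. Factor 11 mRNA quantified by real-time RT-PCR (primer probe set RTS 2966) and normalized to total RNA (RIBOGREEN). Results expressed as percent inhibition versus untreated cells.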

[6] = test system: human Factor 11 mRNA; assay: Dose-dependent inhibition of human Factor 11 in HepG2 cells, electroporation 123.46-10,000 nM (Example 31); settings: for Percent inhibition of Factor 11 mRNA at 123.47 nM / Percent inhibition of Factor 11 mRNA at 370.37 nM / IC50: electroporation; for Percent inhibition of Factor 11 mRNA at 123.47 nM / Percent inhibition of Factor 11 mRNA at 370.37 nM / Percent inhibition of Factor 11 mRNA at 1,111.11 nM / Percent inhibition of Factor 11 mRNA at 3,333.33 nM / Percent inhibition of Factor 11 mRNA at 10,000.0 nM: approx. 16 hours, relative to untreated control cells; for Percent inhibition of Factor 11 mRNA at 1,111.11 nM: electroporation, 1,111.11 nM; for Percent inhibition of Factor 11 mRNA at 3,333.33 nM: electroporation, 3,333.33 nM; for Percent inhibition of Factor 11 mRNA at 10,000.0 nM: electroporation, 10,000.0 nM; for IC50: Factor 11 mRNA expression
Procedure: Cells were plated at a density of 20,000 cells per well and transfected using electroporation with 123.46 nM, 370.37 nM, 1,111.11 nM, 3,333.33 nM and 10,000 nM concentrations of antisense oligonucleotide, as specified in Table 45. After a treatment period of approximately 16 hours, RNA was isolated from the cells and Factor 11 mRNA levels were measured by quantitative real-time PCR. Human Factor 11 primer probe set RTS 2966 was used to measure mRNA levels. Factor 11 mRNA levels were adjusted according to total RNA content, as measured by RIBOGREEN. Results are presented as percent inhibition of Factor 11, relative to untreated control cells.

[7] = test system: human Factor 11 mRNA; assay: Antisense inhibition of human Factor 11 in HepG2 cells, electroporation, 8,000 nM (Example 30); settings: electroporation, 8,000 nM antisense oligonucleotide
Procedure: These microwalk gapmers were tested in vitro. Cultured HepG2 cells at a density of 20,000 cells per well were transfected using electroporation with 8,000 nM antisense oligonucleotide. After a treatment period of approximately 24 hours, RNA was isolated from the cells and Factor 11 mRNA levels were measured by quantitative real-time PCR. Factor 11 mRNA levels were adjusted according to total RNA content, as measured by RIBOGREEN. Results are presented as percent inhibition of Factor 11, relative to untreated control cells.
The chimeric antisense oligonucleotides in Table 44 were designed as 5-10-5 MOE, 5-8-5 and 6-8-6 MOE gapmers. The first two listed gapmers in Table 44 are the original gapmers (ISIS 416850 and ISIS 416858) from which ISIS 445493-445543 were designed via microwalk, and are designated by an asterisk. The 5-10-5 gapmers are 20 nucleotides in length, wherein the central gap segment is comprised of ten 2′-deoxynucleotides and is flanked on both sides (in the 5′ and 3′ directions) by wings comprising five nucleotides each. The 5-8-5 gapmers are 18 nucleotides in length, wherein the central gap segment is comprised of eight 2′-deoxynucleotides and is flanked on both sides (in the 5′ and 3′ directions) by wings comprising five nucleotides each. The 6-8-6 gapmers are 20 nucleotides in length, wherein the central gap segment is comprised of eight 2′-deoxynucleotides and is flanked on both sides (in the 5′ and 3′ directions) by wings comprising six nucleotides each. For each of the motifs (5-10-5, 5-8-5 and 6-8-6), each nucleotide in the 5′ wing segment and each nucleotide in the 3′ wing segment has a 2′-MOE modification. The internucleoside linkages throughout each gapmer are phosphorothioate (P=S) linkages. All cytidine residues throughout each gapmer are 5-methylcytidines. “Human Target start site” indicates the 5′-most nucleotide to which the gapmer is targeted in the human sequence. “Human Target stop site” indicates the 3′-most nucleotide to which the gapmer is targeted in the human sequence. Each gapmer listed in Table 44 is targeted to SEQ ID NO: 1 (GENBANK Accession No. NM_000128.3). Each gapmer is Table 44 is also fully cross-reactive with the rhesus monkey Factor 11 gene sequence, designated herein as SEQ ID NO: 274 (exons 1-15 GENBANK Accession No. NW_001118167.1). ‘Rhesus monkey start site’ indicates the 5′-most nucleotide to which the gapmer is targeted in the rhesus monkey sequence. ‘Rhesus monkey stop site’ indicates the 3′-most nucleotide to which the gapmer is targeted to the rhesus monkey sequence.

[8] = HepG2, lipofectin, ~24 h, gapmers targeted to nucleobases 656 to 704 of SEQ ID NO: 1
[9] = HepG2 cells, lipofectin, gapmers targeted to nucleobases 1275 to 1318 of SEQ ID NO: 1

Substance | percent inhibition of Factor 11 at 9.375 nM [1] [%] | percent inhibition of Factor 11 at 18.75 nM [1] [%] | percent inhibition of Factor 11 at 37.5 nM [1] [%] | percent inhibition of Factor 11 at 75 nM [1] [%] | percent inhibition of Factor 11 at 150 nM [1] [%] | IC50 [1] [nM] | % inhibition [2, 8] [%] | % inhibition [4] [%] | Percent inhibition of Factor 11 mRNA at 123.47 nM [6] [%] | Percent inhibition of Factor 11 mRNA at 370.37 nM [6] [%] | Percent inhibition of Factor 11 mRNA at 1,111.11 nM [6] [%] | Percent inhibition of Factor 11 mRNA at 3,333.33 nM [6] [%] | Percent inhibition of Factor 11 mRNA at 10,000.0 nM [6] [%] | IC50 [6] [nM] | Percent inhibition of human Factor 11 mRNA levels [7] [%] | % inhibition [2, 9] [%] | other results
412203 (antisense eA*eA*eT*eG*eT*d[5mC]*dT*dT*dT*dG*dT*dT*dG*d[5mC]*dA*eA*eG*e[5mC]*eG*e[5mC]) [compound 412203] | 29 | 15 | 61 | 77 | 82 | 33 | 97 | 91 |  |  |  |  |  |  |  |  | IC50 [3]: 2700 nM; percent inhibition of Factor 11 at 0.7 μM [3]: 11%; percent inhibition of Factor 11 at 2.2 μM [3]: 60%; percent inhibition of Factor 11 at 6.7 μM [3]: 70%; percent inhibition of Factor 11 at 20 μM [3]: 91%; IC50 [5]: 24 nM; percent inhibition of Factor 11 at 9.375 nM [5]: 33%; percent inhibition of Factor 11 at 18.75 nM [5]: 40%; percent inhibition of Factor 11 at 37.5 nM [5]: 62%; percent inhibition of Factor 11 at 75 nM [5]: 74%
412212 (antisense e[5mC]*e[5mC]*eG*eG*eG*dA*dT*dG*dA*dT*dG*dA*dG*dT*dG*e[5mC]*eA*eG*eA*eT) [compound 412212] | 28 | 45 | 59 | 73 | 88 | 25 |  | 88 |  |  |  |  |  |  |  |  | % inhibition ([2]; HepG2 cells, lipofectin, gapmers targeted to nucleobases 1018 to 1042 of SEQ ID NO: 1): 89%
413467 (antisense eG*eG*eT*e[5mC]*e[5mC]*dA*d[5mC]*dA*dT*dA*dA*dA*dT*dG*dT*e[5mC]*eT*eT*eT*eG) [compound 413467] | 2 | 35 | 49 | 61 | 47 | 43 | 92 | 91 |  |  |  |  |  |  |  |  | IC50 [3]: 4200 nM; percent inhibition of Factor 11 at 0.7 μM [3]: 5%; percent inhibition of Factor 11 at 2.2 μM [3]: 31%; percent inhibition of Factor 11 at 6.7 μM [3]: 65%; percent inhibition of Factor 11 at 20 μM [3]: 89%; IC50 [5]: 20 nM; percent inhibition of Factor 11 at 9.375 nM [5]: 35%; percent inhibition of Factor 11 at 18.75 nM [5]: 51%; percent inhibition of Factor 11 at 37.5 nM [5]: 62%; percent inhibition of Factor 11 at 75 nM [5]: 69%
413468 (antisense eG*eT*e[5mC]*eT*eA*dG*dG*dT*d[5mC]*d[5mC]*dA*d[5mC]*dA*dT*dA*eA*eA*eT*eG*eT) [compound 413468] | 14 | 34 | 56 | 78 | 75 | 35 | 83 | 84 |  |  |  |  |  |  |  |  | 
413469 (antisense eT*eG*e[5mC]*e[5mC]*e[5mC]*dT*dT*d[5mC]*dA*dT*dG*dT*d[5mC]*dT*dA*eG*eG*eT*e[5mC]*e[5mC]) [compound 413469] | 24 | 33 | 53 | 70 | 84 | 33 | 86 | 84 |  |  |  |  |  |  |  |  | 
416849 (antisense eG*e[5mC]*eA*e[5mC]*eA*dG*dT*dT*dT*d[5mC]*dT*dG*dG*d[5mC]*dA*eG*eG*e[5mC]*e[5mC]*eT) [compound 416849] |  |  |  |  |  |  |  |  | 5 | 5 | 26 | 57 | 68 | 2700 | 88 | 88 | 
416857 (antisense e[5mC]*eG*eG*e[5mC]*eA*dT*dT*dG*dG*dT*dG*d[5mC]*dA*d[5mC]*dA*eG*eT*eT*eT*e[5mC]) [compound 416857] |  |  |  |  |  |  |  |  | 2 | 20 | 35 | 62 | 72 | 2300 | 91 | 92 | 
416865 (antisense eT*eG*eG*e[5mC]*eA*dG*d[5mC]*dG*dG*dA*d[5mC]*dG*dG*d[5mC]*dA*eT*eT*eG*eG*eT) [compound 416865] |  |  |  |  |  |  |  |  |  |  |  |  |  |  | 86 | 88 | 
445503 (antisense eG*e[5mC]*eA*eT*eT*eG*dG*dT*dG*d[5mC]*dA*d[5mC]*dA*dG*eT*eT*eT*e[5mC]*eT*eG) [compound 445503] |  |  |  |  |  |  |  |  | 0 | 0 | 22 | 36 | 60 | 5900 | 89 |  | 
445532 (antisense e[5mC]*eG*eG*e[5mC]*eA*dT*dT*dG*dG*dT*dG*d[5mC]*dA*e[5mC]*eA*eG*eT*eT) [compound 445532] |  |  |  |  |  |  |  |  | 5 | 12 | 39 | 60 | 70 | 2000 | 89 |  | 
